The values below come from a melting point compilation (Tetko et al.; mined from patent text by program, amines drawn as free bases though some values may be those of a salt).

What is called melting point is the temperature, or range, at which the solid turns liquid.

The structures appear in SMILES notation.

As to `Cc1csc(C#CCCn2nc3ccccc3n2)n1`, the melting point lay within 78 to 80 °C. In turn, `O=C(NC1N=C(c2ccccc2F)c2ccccc2NC1=S)c1ccc(Cl)cc1` (stereo unspecified) had a melting point of 156 to 158 °C.

`CCCCc1cc(C(N)=O)ccc1OCCCNc1cnn(C(C)C)c(=O)c1Cl`: the melting point lay within 172 to 174 °C. On to `NNc1ncnc(Nc2ccc(F)c(C(F)(F)F)c2)n1`, for which the melting point was 181 to 182 °C. As for `CCOC(=O)c1cc2cccc(NC(=O)c3cc(OCc4ccccc4F)cc(OCc4ccccc4F)c3)c2[nH]1`, the melting point was 157 to 158 °C. Next, `O=C(O)Cc1ccccc1Oc1ccccc1`: 82 to 85 °C; `COc1cc(/C=C2/C(=O)NC(=O)/C2=C/c2ccccc2)cc(OC)c1OC`: 176 to 178 °C; `CCN1CNS(=O)(=O)c2sc(Cl)cc21`: 119 to 120 °C.

On to `COC(=O)c1ccc(OC[C@H](C)N(C)C(=O)C(F)(F)F)cc1`, for which the melting point is 73 to 75 °C. In turn, `CCOC(=O)CCC1(NC(=O)c2ccc3ccccc3c2)C(=O)N(c2ccccc2)c2cc(OCC)ccc21` (stereo unspecified) displayed a melting point of 195 to 196 °C. The same measure for `CCC(O)(c1cc(OC)cc(OCc2ccc3ccccc3c2)c1)c1nccs1` (stereo unspecified): 105 °C; for `Cc1nc(C(=O)NN(C)C)c2n1-c1ccc(Cl)cc1C(c1ccccc1F)NC2` (stereo unspecified): 218 to 219 °C; for `O=C(O)CCC(=O)c1ccc(-c2ccc(Br)cc2F)cc1`: 145 to 147 °C. Take `Cc1ccc(C)c(C(CO)c2ccc(C(C)C)cc2)c1O` (stereo unspecified): the melting point was in the range of 88 to 89 °C. In turn, `CCNc1cccnc1N1CCN(C(=O)c2ccc(C(=O)NCCO)cn2)CC1` showed a melting point of 178 to 180 °C. `CC(C)(C)OC(=O)N1CCN(c2ccc(C#N)c(F)c2)CC1` yielded a melting point of 130 to 131 °C.

Consider `CCOC(=O)C(=O)Nc1c([N+](=O)[O-])sc2cc(Cl)ccc12`, for which the melting point fell in the range of 139 to 141 °C. Compound `O=Cc1ccc(N(c2ccccc2)c2ccccc2)cc1` gave a melting point of 129 to 130 °C. The compound `Cn1cc(C(=O)Nc2ccccc2-c2cc(F)ccc2F)c(C(F)(F)F)n1` gave a melting point of 110 to 112 °C. The compound `CCCCc1nc(Cl)c(CO)n1Cc1ccc(-c2cccc(C(=O)O)c2)cc1` gave a melting point of 180 to 181 °C. The compound `CN(C)S(=O)(=O)N(C)c1cccc2cc(-c3nccs3)[nH]c12` registered a melting point of 123 °C. For `CN1CCN(C2=Nc3ccccc3Oc3sc(Br)cc32)CC1`, the melting point was in the range of 150 to 151 °C.

Compound `CCOC(=O)/C=C/c1cc(OCc2cn(-c3ccc(C(F)(F)F)cn3)nc2C)nn1C` yielded a melting point of 173 to 174 °C. Compound `Cc1nc2nccc(-c3cccc(C(F)(F)F)c3)n2n1` had a melting point of 153 to 154 °C. The compound `COc1cc(N)c(Cl)cc1-c1nn(C2CCN(CCc3ccccc3)CC2)c(=O)o1` showed a melting point of 184 °C.

In the case of `CCC(=O)N1CCC(NC(=O)NC2CCCCCC2)CC1`, the melting point was in the range of 164 to 172 °C. Consider `Cc1cc(-c2cc(C(F)(F)F)n3ncc(I)c3n2)ccc1Cl`, for which the melting point came to 151 °C.

`CCOC(=O)c1cn(C2CC2)c2cc(Br)c(F)cc2c1=O` gave a melting point of 251 to 253 °C.

`CN1C(=O)CCc2cc(Cl)ccc21` came in with a melting point of 76 to 78 °C.

On to `CCn1nnn(-c2cc(O)c(Cl)cc2Cl)c1=O`, for which the melting point lay within 149 to 150 °C.

For the compound `O=c1c(Br)c(Br)cnn1Cc1ccccc1`, the melting point is 95 to 96 °C.

The compound `c1ccc(COc2cccc3nc[nH]c23)cc1` registered a melting point of 165 to 167 °C. As to `CC#CCOc1ccc(S(=O)(=O)C2(C(=O)O)CCN(C(C)C)CC2)cc1`, the melting point was 233 °C. In turn, `O=C(OCC(F)(F)F)c1ncn2c1CN=C(c1ccccc1)c1cc(Br)ccc1-2` showed a melting point of 202 to 204 °C. In turn, `C/C=C\Cn1c(Oc2cc(C)cc(C)c2)c(C(C)C)c(=O)[nH]c1=O` had a melting point of 141 to 142 °C. `Brc1cccc(Sc2ccc3ccccc3c2)c1` had a melting point of 68 to 70 °C.
